Measured values as given in PubChem BioAssay AID1259411 (Chemical Carcinogenesis Research Information System (CCRIS), 2018).
Activity calls are given as the source filed them. How the calls were made is not given here.

System: rodent carcinogenicity bioassays, tumor incidence
Experiment: CCRIS carcinogenicity studies
Details: Dose: 0, Dose: 0
Method in brief: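 NCI-built, expert-reviewed records of carcinogenicity and related test outcomes (mutagenicity, tumor promotion/inhibition) compiled from published and report sources, historical span 1985-2011, not updated.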

For [O-][Cl+2]([O-])O, the carcinogen call (Species: MOUSE, Strain/Sex: B6C3F1/FEMALE (50, 50, 50, 50), Route: DRINKING WATER, 500, 1000, 2000 MG/L FOR 105 WKS (STUDY DURATION: 105 WKS), 500, 1000, 2000 MG/L FOR 105 WKS (STUDY DURATION: 105 WKS), Tumor Site: Type of Lesion: PANCREAS: ADENOMA OR CARCINOMA) was “equivocal”, the carcinogen call (Species: MOUSE, Strain/Sex: B6C3F1/MALE (50, 50, 50, 50), Route: DRINKING WATER, 500, 1000, 2000 MG/L FOR 105 WKS (STUDY DURATION: 105 WKS), 500, 1000, 2000 MG/L FOR 105 WKS (STUDY DURATION: 105 WKS)) was “inactive; negative” and the carcinogen call (Species: RAT, Strain/Sex: F344/N/FEMALE (50, 50, 50, 50), Route: DRINKING WATER, 125, 1000, 2000 MG/L FOR 105 WK (STUDY DURATION: 105 WKS), 125, 1000, 2000 MG/L FOR 105 WK (STUDY DURATION: 105 WKS)) was “inactive; negative; ntp reports as some evidence for thyroid but p values are not statisti”. The carcinogen call (Species: RAT, Strain/Sex: F344/N/MALE (50, 50, 50, 50), Route: DRINKING WATER, 125, 1000, 2000 MG/L FOR 105 WK (STUDY DURATION: 105 WKS), 125, 1000, 2000 MG/L FOR 105 WK (STUDY DURATION: 105 WKS), Tumor Site: Type of Lesion: THYROID: FOLLICULAR CELL ADENOMA OR CARCINOMA) was “active; positive (p = 0.052); ntp reports as some evidence”.

In the case of O=C1c2ccccc2C(=O)N1SC(Cl)(Cl)Cl, the carcinogen call (Species: MOUSE, Strain/Sex: B6C3F1/FEMALE, Route: ORAL, 1000, 5000, 10000 PPM IN DIET FOR 104 WK (STUDY DURATION: 104 WK), 1000, 5000, 10000 PPM IN DIET FOR 104 WK (STUDY DURATION: 104 WK), Tumor Site: Type of Lesion: DUODENUM: CARCINOMA OR ADENOMA) is reported as “active; positive”, the carcinogen call (Species: MOUSE, Strain/Sex: B6C3F1/MALE, Route: ORAL, 1000, 5000, 10000 PPM IN DIET FOR 104 WK (STUDY DURATION: 104 WK), 1000, 5000, 10000 PPM IN DIET FOR 104 WK (STUDY DURATION: 104 WK), Tumor Site: Type of Lesion: NON-GLANDULAR STOMACH: PAPILLOMA OR SQUAMOUS CELL CARCINOMA, DUODENUM: CARCINOMA OR ADENOMA) is reported as “active; positive” and the carcinogen call (Species: Mouse, Strain/Sex: B6C3F1/Female (52/Group), Route: Oral, 1000, 5000/3500, 10,000/7000 ppm (doses reduced at wk 21) of 88-89% folpet in diet for 2 yr, study duration 2 yr, 1000, 5000/3500, 10,000/7000 ppm (doses reduced at wk 21) of 88-89% folpet in diet for 2 yr, study duration 2 yr, Tumor Site: Type of Lesion: Stomach: papilloma and squamous cell carcinoma combined (2, 2, 5, 7). Duodenum: adenomas and carcinomas (1, 2, 10, 19).) is reported as “active; positive”. For the same compound, the carcinogen call (Species: Mouse, Strain/Sex: B6C3F1/Male (52/Group), Route: Oral, 1000, 5000/3500, 10,000/7000 ppm (doses reduced at wk 21) of 88-89% folpet in diet for 2 yr, study duration 2 yr, 1000, 5000/3500, 10,000/7000 ppm (doses reduced at wk 21) of 88-89% folpet in diet for 2 yr, study duration 2 yr, Tumor Site: Type of Lesion: Stomach: papilloma and squamous cell carcinoma combined (0, 2, 6, 3). Duodenum: adenomas and carcinomas (0, 4, 17, 25)) was “active; positive”, the carcinogen call (Species: Rat, Strain/Sex: Strain not specified in Department of Pesticides Regulation report /Female (60/Group), Route: Oral, 200, 800, 3200 ppm of 89.5% folpet in diet for 105 wk, study duration 105 wk, 200, 800, 3200 ppm of 89.5% folpet in diet for 105 wk, study duration 105 wk) was “inactive; negative” and the carcinogen call (Species: Rat, Strain/Sex: Strain not specified in Department of Pesticides Regulation report /Male (60/Group), Route: Oral, 200, 800, 3200 ppm of 89.5% folpet in diet for 105 wk, study duration 105 wk, 200, 800, 3200 ppm of 89.5% folpet in diet for 105 wk, study duration 105 wk) was “inactive; negative. increased incidence of thyroid tumors judged by reviewers as equivocal”.

In the case of Clc1ccc(Cl)c(-c2cc(Cl)ccc2Cl)c1, the carcinogen call (Species: MOUSE, Strain/Sex: STRAIN-A/FEMALE, Route: INTRAPERITONEAL, 0.1, 0.2 UMOL/UL OF DMSO 5, 10 AND 20 µL GIVEN ON DAYS 4, 8 AND 15 AFTER BIRTH, RESPECTIVELY (STUDY DURATION: 28 WK), 0.1, 0.2 UMOL/UL OF DMSO 5, 10 AND 20 µL GIVEN ON DAYS 4, 8 AND 15 AFTER BIRTH, RESPECTIVELY (STUDY DURATION: 28 WK)) is reported as “inactive; negative” and the carcinogen call (Species: MOUSE, Strain/Sex: STRAIN-A/MALE, Route: INTRAPERITONEAL, 0.1, 0.2 UMOL/UL OF DMSO 5, 10 AND 20 µL GIVEN ON DAYS 4, 8 AND 15 AFTER BIRTH, RESPECTIVELY (STUDY DURATION: 28 WK), 0.1, 0.2 UMOL/UL OF DMSO 5, 10 AND 20 µL GIVEN ON DAYS 4, 8 AND 15 AFTER BIRTH, RESPECTIVELY (STUDY DURATION: 28 WK)) is reported as “inactive; negative”.

With O[C@@H]1C=Cc2c(ccc3cc4ccccc4nc23)[C@H]1O the carcinogen call (Species: MOUSE, Strain/Sex: SWISS/FEMALE, Route: INTRAPERITONEAL, 1.05 UMOL GIVEN AS 150 NMOL IN 5 µL DMSO WITHIN 24 HR OF BIRTH, 300 NMOL IN 10 µL DMSO ON D 8 OF LIFE, AND 600 NMOL I, Tumor Site: Type of Lesion: LUNG: ADENOMA) was “active; positive” and the carcinogen call (Species: MOUSE, Strain/Sex: SWISS/MALE, Route: INTRAPERITONEAL, 1.05 UMOL GIVEN AS 150 NMOL IN 5 µL DMSO WITHIN 24 HR OF BIRTH, 300 NMOL IN 10 µL DMSO ON D 8 OF LIFE, AND 600 NMOL I, Tumor Site: Type of Lesion: LUNG: ADENOMA, LIVER: NEOPLASTIC NODULE) was “active; positive”.

With COc1ccc(N)c(OC)c1 the carcinogen call (Species: MOUSE, Strain/Sex: B6C3F1/FEMALE, Route: ORAL, 2500, 5000 PPM IN DIET, 2500, 5000 PPM IN DIET) was “inactive; negative”, the carcinogen call (Species: MOUSE, Strain/Sex: B6C3F1/MALE, Route: ORAL, 2500, 5000 PPM IN DIET, 2500, 5000 PPM IN DIET) was “inactive; negative” and the carcinogen call (Species: RAT, Strain/Sex: F344/FEMALE, Route: ORAL, 1500, 3000 PPM IN DIET, 1500, 3000 PPM IN DIET) was “inactive; negative”. The carcinogen call (Species: RAT, Strain/Sex: F344/MALE, Route: ORAL, 1500, 3000 PPM IN DIET, 1500, 3000 PPM IN DIET) was “inactive; negative”.

For OCCCl, the carcinogen call (Species: MOUSE, Strain/Sex: CD-1/FEMALE, Route: DERMAL, 7.5, 15 MG/ANIMAL IN 70% ETHANOL IN WATER 5 D/WK FOR 104 WK, 7.5, 15 MG/ANIMAL IN 70% ETHANOL IN WATER 5 D/WK FOR 104 WK) was “inactive; negative”, the carcinogen call (Species: MOUSE, Strain/Sex: CD-1/MALE, Route: DERMAL, 7.5, 15 MG/ANIMAL IN 70% ETHANOL IN WATER 5 D/WK FOR 104 WK, 7.5, 15 MG/ANIMAL IN 70% ETHANOL IN WATER 5 D/WK FOR 104 WK) was “inactive; negative” and the carcinogen call (Species: RAT, Strain/Sex: F344/FEMALE, Route: DERMAL, 50, 100 MG/KG IN 70% ETHANOL IN WATER 5 D/WK FOR 103 WK, 50, 100 MG/KG IN 70% ETHANOL IN WATER 5 D/WK FOR 103 WK) was “inactive; negative”. For the same compound, the carcinogen call (Species: RAT, Strain/Sex: F344/MALE, Route: DERMAL, 50, 100 MG/KG IN 70% ETHANOL IN WATER 5 D/WK FOR 103 WK, 50, 100 MG/KG IN 70% ETHANOL IN WATER 5 D/WK FOR 103 WK) was “inactive; negative”.

With OC[C@@H](O)[C@@H](O)[C@H](O)[C@H](O)CO[C@H]1O[C@H](CO)[C@@H](O)[C@H](O)[C@H]1O the carcinogen call (Species: MOUSE, Strain/Sex: SWISS/FEMALE, Route: ORAL, 2.5, 5, 10% IN DIET FOR LIFE (PARENTS FED DIETS BEFORE AND AFTER PREGNANCY AND DURING LACTATION) (STUDY DURATION: 104, 2.5, 5, 10% IN DIET FOR LIFE (PARENTS FED DIETS BEFORE AND AFTER PREGNANCY AND DURING LACTATION) (STUDY DURATION: 104) was “inactive; negative”, the carcinogen call (Species: MOUSE, Strain/Sex: SWISS/MALE, Route: ORAL, 2.5, 5, 10% IN DIET FOR LIFE (PARENTS FED DIETS BEFORE AND AFTER PREGNANCY AND DURING LACTATION) (STUDY DURATION: 94, 2.5, 5, 10% IN DIET FOR LIFE (PARENTS FED DIETS BEFORE AND AFTER PREGNANCY AND DURING LACTATION) (STUDY DURATION: 94) was “inactive; negative” and the carcinogen call (Species: RAT, Strain/Sex: WISTAR/FEMALE, Route: ORAL, 2.5, 5, 10% IN DIET FOR LIFE (PARENTS FED DIETS BEFORE AND AFTER PREGNANCY AND DURING LACTATION) (STUDY DURATION: 130, 2.5, 5, 10% IN DIET FOR LIFE (PARENTS FED DIETS BEFORE AND AFTER PREGNANCY AND DURING LACTATION) (STUDY DURATION: 130) was “inactive; negative”. The carcinogen call (Species: RAT, Strain/Sex: WISTAR/MALE, Route: ORAL, 2.5, 5, 10% IN DIET FOR LIFE (PARENTS FED DIETS BEFORE AND AFTER PREGNANCY AND DURING LACTATION) (STUDY DURATION: 128, 2.5, 5, 10% IN DIET FOR LIFE (PARENTS FED DIETS BEFORE AND AFTER PREGNANCY AND DURING LACTATION) (STUDY DURATION: 128) was “inactive; negative”.
